Assay results published in ChEMBL document CHEMBL4219265, “Piperlongumine derivative, CG-06, inhibits STAT3 activity by direct binding to STAT3 and regulating the reactive oxygen species in DU145 prostate carcinoma cells” (Bioorg Med Chem Lett, 2018).

What was measured:
[1] = molecular target: T1, Signal transducer and activator of transcription 3 (Homo sapiens, UniProt P40763); assay: Inhibition of STAT3 in human DU145 cells assessed as increase in ERK1/2 phosphorylation at 5 uM by Western blot analysis; type: cell-based; settings: TDE = time-dependent effect
[2] = molecular target: T1, Signal transducer and activator of transcription 3; assay: Binding affinity to STAT3 in human DU145 cell lysates assessed as reduction in pronase-induced STAT3 digestion by measuring ratio of STAT3 protein level to GAPDH protein level at 50 uM incubated for 1 hr followed by 0.05% pronase addition for 10 mins by Western blot analysis (reference value: 1)
DU-145 [3] = assay: Cell cycle arrest in human DU145 cells assessed as accumulation at G2/M phase at 5 uM after 48 hrs by flow cytometry (reference value: 18.12%); type: functional
DU-145 [4] = assay: Induction of apoptosis in human DU145 cells at 5 uM after 24 hrs by flow cytometry (reference value: 0.61%); type: functional
[5] = molecular target: T1, Signal transducer and activator of transcription 3; assay: Inhibition of STAT3-induced ERK1/2 phosphorylation in human DU145 cells assessed as ratio of phosphorylated ERK1/2 protein level to GAPDH protein level at 5 uM after 6 hrs by Western blot analysis (reference value: 1); type: cell-based
[6] = molecular target: T1, Signal transducer and activator of transcription 3; assay: Inhibition of STAT3 in human DU145 cells assessed as ratio of cyclin A protein level to tubulin protein level at 5 uM after 48 hrs by Western blot analysis (reference value: 1); type: cell-based
[7] = molecular target: T1, Signal transducer and activator of transcription 3; assay: Inhibition of STAT3 in human DU145 cells assessed as ratio of Bcl-xl protein level to tubulin protein level at 5 uM after 48 hrs by Western blot analysis (reference value: 1); type: cell-based
DU-145 [8] = assay: Effect on total ERK1/2 protein level in human DU145 cells assessed as ratio of ERK1/2 protein level to GAPDH protein level at 5 uM after 1 hr by Western blot analysis (reference value: 1); type: ADME, cell-based; settings: du-145, 1 h
[9] = molecular target: T1, Signal transducer and activator of transcription 3; assay: Inhibition of STAT3 phosphorylation at Tyr705 residues in human DU145 cells assessed as ratio of phosphorylated STAT3 protein level to GAPDH protein level at 5 uM after 0.5 hrs by Western blot analysis (reference value: 1); type: cell-based
[10] = molecular target: T1, Signal transducer and activator of transcription 3; assay: Inhibition of STAT3 phosphorylation at Tyr705 residues in human DU145 cells assessed as ratio of phosphorylated STAT3 protein level to GAPDH protein level at 0.5 uM after 24 hrs by Western blot analysis (reference value: 1); type: cell-based
[11] = molecular target: T1, Signal transducer and activator of transcription 3; assay: Inhibition of STAT3 phosphorylation at Tyr705 residues in human DU145 cells assessed as ratio of phosphorylated STAT3 protein level to GAPDH protein level at 5 uM after 12 hrs by Western blot analysis (reference value: 1); type: cell-based
[12] = molecular target: T1, Signal transducer and activator of transcription 3; assay: Inhibition of STAT3 phosphorylation at Tyr705 residues in human DU145 cells assessed as ratio of phosphorylated STAT3 protein level to GAPDH protein level at 1 uM after 24 hrs by Western blot analysis (reference value: 1); type: cell-based
[13] = molecular target: T1, Signal transducer and activator of transcription 3; assay: Inhibition of IL-6-mediated STAT3 phosphorylation in human LNCAP cells assessed as ratio of phosphorylated STAT3 protein level to GAPDH protein level at 5 uM preincubated for 12 hrs followed by IL-6 stimulation for 30 mins by Western blot analysis (reference value: 7.5); type: cell-based
DU-145 [14] = assay: Effect on total STAT3 protein level in human DU145 cells assessed as ratio of STAT3 protein level to GAPDH protein level at 5 uM after 1 hr by Western blot analysis (reference value: 1); type: ADME, cell-based; settings: du-145, 1 h
[15] = molecular target: T1, Signal transducer and activator of transcription 3; assay: Inhibition of STAT3 in human DU145 cells assessed as ratio of survivin protein level to tubulin protein level at 5 uM after 48 hrs by Western blot analysis (reference value: 1); type: cell-based
DU-145 [16] = assay: Effect on total STAT3 protein level in human DU145 cells assessed as ratio of STAT3 protein level to GAPDH protein level at 5 uM after 24 hrs by Western blot analysis (reference value: 1); type: ADME, cell-based; settings: du-145, 24 h
[17] = molecular target: T1, Signal transducer and activator of transcription 3; assay: Inhibition of STAT3 phosphorylation in human DU145 cells assessed as ratio of phosphorylated STAT3 protein level to GAPDH protein level at 5 uM preincubated with NAC for 1 hr followed by compound addition for 1 hr by Western blot analysis (reference value: 0.3); type: cell-based
DU-145 [18] = assay: Induction of apoptosis in human DU145 cells at 5 uM after 12 hrs by flow cytometry (reference value: 0.61%); type: functional

T1 sequence (P40763 whole entry): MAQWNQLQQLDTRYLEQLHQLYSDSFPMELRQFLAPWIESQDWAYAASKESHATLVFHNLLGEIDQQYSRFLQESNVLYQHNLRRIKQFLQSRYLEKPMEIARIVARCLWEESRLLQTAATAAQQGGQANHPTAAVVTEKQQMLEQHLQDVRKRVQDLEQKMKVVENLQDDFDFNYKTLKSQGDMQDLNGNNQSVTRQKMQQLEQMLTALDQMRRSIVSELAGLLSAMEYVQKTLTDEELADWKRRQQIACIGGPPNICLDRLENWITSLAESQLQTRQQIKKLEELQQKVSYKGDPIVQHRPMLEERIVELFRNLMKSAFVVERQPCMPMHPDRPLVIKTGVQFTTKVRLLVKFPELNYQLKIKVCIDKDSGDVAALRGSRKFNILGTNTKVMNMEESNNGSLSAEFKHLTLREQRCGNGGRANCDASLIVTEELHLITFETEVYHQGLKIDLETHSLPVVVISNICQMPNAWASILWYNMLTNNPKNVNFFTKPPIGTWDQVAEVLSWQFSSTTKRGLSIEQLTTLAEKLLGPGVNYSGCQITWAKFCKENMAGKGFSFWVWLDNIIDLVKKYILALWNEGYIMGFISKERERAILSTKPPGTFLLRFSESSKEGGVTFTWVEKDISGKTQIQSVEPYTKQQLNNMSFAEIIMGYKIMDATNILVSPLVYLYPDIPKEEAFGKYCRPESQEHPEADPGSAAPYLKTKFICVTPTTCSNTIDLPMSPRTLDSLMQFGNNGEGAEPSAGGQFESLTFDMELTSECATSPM

inhibition [1]: Tde
Ratio [2]: 2.2
Ratio [5]: 2.2
Ratio [6]: 0.6
Ratio [7]: 1
Ratio (DU-145 [8]): 1.1
Ratio [9]: 0.5
Ratio [10]: 0.7
Ratio [11]: 0.2
Ratio [12]: 0.6
Ratio [13]: 1.6
Ratio (DU-145 [14]): 1
Ratio (DU-145 [16]): 0.7
Ratio [17]: 1.2
SMILES: C=C(C)C(=O)N(Cc1ccc(Br)cc1)C(=O)/C=C/c1cc(OC)c(OC)c(OC)c1
Activity (DU-145 [3]): 18.95%
Activity (DU-145 [4]): 0.72%
Ratio [15]: 0.7
Activity (DU-145 [18]): 0.65%
